Source: paper PMC7691401, “^68Ga, ^44Sc and ^177Lu-labeled AAZTA^5-PSMA-617: synthesis, radiolabeling, stability and cell binding compared to DOTA-PSMA-617 analogues” (EJNMMI Radiopharmacy and Chemistry, 2020)
Read-outs that look alike come from different tables or passages of the source.

What was measured:
PSMA = molecular target: T1, PSMA (Homo sapiens, UniProt Q04609); details: LNCaP cells, read-out: Ki ± SD, cited from earlier work
T1 construct: 10^5 LNCaP cells per well were incubated with 0.75 nM [^68Ga]Ga-PSMA-10; host or cells: LNCaP
T1 sequence (Q04609 whole entry): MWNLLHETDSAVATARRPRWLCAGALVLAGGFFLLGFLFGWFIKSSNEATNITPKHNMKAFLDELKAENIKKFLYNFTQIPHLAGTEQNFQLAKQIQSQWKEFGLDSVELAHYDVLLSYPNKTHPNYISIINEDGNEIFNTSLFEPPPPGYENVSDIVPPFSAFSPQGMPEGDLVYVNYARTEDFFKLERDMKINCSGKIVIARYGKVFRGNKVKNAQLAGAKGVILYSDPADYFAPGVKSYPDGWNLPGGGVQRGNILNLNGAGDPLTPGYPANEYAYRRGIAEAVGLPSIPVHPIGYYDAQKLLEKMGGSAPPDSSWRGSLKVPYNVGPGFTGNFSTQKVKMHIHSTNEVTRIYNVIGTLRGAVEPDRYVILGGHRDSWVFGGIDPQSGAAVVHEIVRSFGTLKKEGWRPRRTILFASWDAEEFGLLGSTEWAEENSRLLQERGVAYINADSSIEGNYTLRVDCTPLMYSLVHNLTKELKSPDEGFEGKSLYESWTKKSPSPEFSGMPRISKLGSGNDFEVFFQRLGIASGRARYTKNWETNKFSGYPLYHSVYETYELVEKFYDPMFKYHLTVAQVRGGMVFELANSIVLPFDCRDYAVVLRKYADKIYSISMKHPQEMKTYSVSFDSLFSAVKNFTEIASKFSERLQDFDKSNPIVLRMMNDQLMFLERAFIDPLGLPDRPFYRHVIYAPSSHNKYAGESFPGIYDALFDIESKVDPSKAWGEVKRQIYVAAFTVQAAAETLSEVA

[1] = test system: PSMA-positive LNCaP cells; details: cited from earlier work
[2] = parameters: method as in Sinnes et al. [2019]; details: HS, ref Sinnes et al. [2019], in % (unit assumed), cited from earlier work
[3] = parameters: method as in Sinnes et al. [2019]; details: PBS, ref Sinnes et al. [2019], in % (unit assumed), cited from earlier work
[4] = parameters: method as in Sinnes et al. [2019]; details: ref Sinnes et al. [2019], in % (unit assumed), cited from earlier work
[5] = test system: PSMA-positive LNCaP cells; experiment: Internalization studies in LNCaP cells; format: cell-based, human; details: for specific internalization or cell surface binding: PSMA-positive LNCaP cells
Method: (§1) The in vitro experiments were performed using the PSMA-positive LNCaP cell line (androgen-sensitive human lymph node metastatic lesion of prostatic adenocarcinoma, CRL-1740 [American Type Culture Collection]) (Benešová et al. [2015]). For negative control, PSMA-PC3 cells (bone metastasis of a grade IV prostatic adenocarcinoma, ATCC CRL-1435) were used (Eder et al. [2012a]). The cells were cultured in RPMI1640 medium supplemented with 10% fetal calf serum and L-glutamine and incubated at 37 °C in an environment of humidified air containing 5% CO2. The cells were harvested using trypsin-ethylenediaminetetraacetic acid (trypsin-EDTA; 0.05% trypsin, 0.02% EDTA, all from PAN Biotech).
For internalization studies 10^5 LNCaP or PC3 cells were seeded in poly(L-lysine)-coated 24-well cell culture plates at 37 °C in an environment of humidified air containing 5% CO2 for 24 h. (Mier et al. [2007]). The medium is removed and 250 μl of radiolabeled 30 nM AAZTA^5-PSMA is replaced for 45 min. One plate is being incubated at 37 °C and the second one at 4 °C to inhibit the internalization. The specificity of the ligands is proofed by addition 500 μM of 2-(phosphonomethyl)-pentanedioic acid (2-PMPA, Axxora, Loerrach, Germany). After incubation, the cells were washed three times with 1 ml ice cold PBS. To determine the surface-bound activity cells were incubated twice with 0.5 ml of glycine-HCl in PBS (50 mM, pH 2.8) each for 5 min at room temperature. Both washing steps were collected for measuring with a gamma counter (Packard Cobra II, GMI, Minnesota, USA). Before lysating the cells with 0.5 mL of 0.3 M NaOH to determine the internalized fraction, they were once washed with 1 ml ice cold PBS (Eder et al. [2012a]).

PC3 cells = experiment: Internalization studies in PC3 cells (negative control); format: cell-based, human; details: PSMA-negative PC3 cells
Method: as §1
For internalization studies 10^5 LNCaP or PC3 cells were seeded in poly(L-lysine)-coated 24-well cell culture plates at 37 °C in an environment of humidified air containing 5% CO2 for 24 h. (Mier et al. [2007]). The medium is removed and 250 μl of radiolabeled 30 nM AAZTA^5-PSMA is replaced for 45 min. One plate is being incubated at 37 °C and the second one at 4 °C to inhibit the internalization. The specificity of the ligands is proofed by addition 500 μM of 2-(phosphonomethyl)-pentanedioic acid (2-PMPA, Axxora, Loerrach, Germany). After incubation, the cells were washed three times with 1 ml ice cold PBS. […]

[6] = LNCaP cells, ref Benešová et al. [2015]

SMILES: O=C([O-])CN(CCN(CC(=O)[O-])Cc1cc(CCC(=O)NCCCCCC(=O)NCCCC[C@H](NC(=O)N[C@@H](CCC(=O)O)C(=O)O)C(=O)O)ccc1[O-])Cc1cc(CCC(=O)O)ccc1[O-].[68Ga+3].[OH3+] [[^nat/68Ga]Ga-PSMA-11]
- Ki (PSMA; ref Eder et al. [2012a]): 12 ± 2.8 nM
- Internalization ± SD [1, 6]: 9.5 ± 2.6 %IA/10^6 cells

SMILES: O=C(O)CCC(NC(=O)NC(CCCCNC(=O)C(Cc1ccc2ccccc2c1)NC(=O)C1CCC(CNC(=O)CN2CCN(CC(=O)O)CCN(CC(=O)O)CCN(CC(=O)O)CC2)CC1)C(=O)O)C(=O)O.[Sc+3] (stereo not drawn) [[^nat/44Sc]Sc-PSMA-617]
- Ki (PSMA; ref Eppard et al. [2017]): 4.7 ± 0.8 nM
- Internalization ± SD ([1]; LNCaP cells, ref Eppard et al. [2017]): 15.8 ± 2.1 %IA/10^6 cells

SMILES: O=C(O)CCCCC1(N(CC(=O)O)CC(=O)O)CN(CC(=O)O)CCN(CC(=O)O)C1.[68Ga+3] [[^68Ga]Ga-AAZTA^5]
- Stability values ([2]; 0.5 h): 93.0 ± 0.8
- Stability values ([2]; 1 h): 92.7 ± 1.3
- Stability values ([2]; 2 h): 85.3 ± 3.4
- Stability values ([3]; 0.5 h): 97.5 ± 1.0
- Stability values ([3]; 1 h): 88.7 ± 0.5
- Stability values ([3]; 2 h): 78.5 ± 4.5
- Stability values ([4]; DTPA, 0.5 h): 84.3 ± 0.9
- Stability values ([4]; DTPA, 1 h): 78.0 ± 1.4
- Stability values ([4]; DTPA, 2 h): 45.7 ± 1.3
- Stability values ([4]; EDTA, 0.5 h): 93.0 ± 0.2
- Stability values ([4]; EDTA, 1 h): 50.3 ± 7.4
- Stability values ([4]; EDTA, 2 h): 49.5 ± 2.5

SMILES: O=C(O)CCC(NC(=O)NC(CCCCNC(=O)C(Cc1ccc2ccccc2c1)NC(=O)C1CCC(CNC(=O)CN2CCN(CC(=O)O)CCN(CC(=O)O)CCN(CC(=O)O)CC2)CC1)C(=O)O)C(=O)O.[Lu+3] (stereo not drawn) [[^nat/177Lu]Lu-PSMA-617]
- Ki (PSMA; ref Benešová et al. [2015]): 6.9 ± 1.3 nM
- Internalization ± SD [1, 6]: 17.5 ± 3.1 %IA/10^6 cells
- %internalization / total cellular activity ratio ([1]; ref Umbricht et al. [2017]): 10–15%
- %internalization / total cellular activity ratio ([5]; LNCaP cells, 37 °C, surface versus internalized activity, this assay): 27%

SMILES: O=C(O)CCCCC1(N(CC(=O)O)CC(=O)O)CN(CC(=O)O)CCN(CC(=O)O)C1.[44Sc+3] [^44Sc AAZTA^5]
- Stability values ([2]; 1 h): 93.7 ± 0.9
- Stability values ([2]; 4 h): 94.3 ± 1.7
- Stability values ([2]; 8 h): 93.2 ± 1.1
- Stability values ([2]; 24 h): 91.3 ± 1.8
- specific internalization or cell surface binding (PC3 cells): no surface activity or internalization
- Stability values ([3]; 1 h): 95.3 ± 0.9
- Stability values ([3]; 4 h): 92.7 ± 1.3
- Stability values ([3]; 8 h): 95.9 ± 1.2
- Stability values ([3]; 24 h): 96.0 ± 0.8
- Stability values ([4]; DTPA, 1 h): 94.3 ± 0.9
- Stability values ([4]; DTPA, 4 h): 92.5 ± 0.5
- Stability values ([4]; DTPA, 8 h): 93.8 ± 1.2
- Stability values ([4]; DTPA, 24 h): 93.4 ± 1.1
- Stability values ([4]; EDTA, 1 h): 93.7 ± 1.3
- Stability values ([4]; EDTA, 4 h): 90.0 ± 3.2
- Stability values ([4]; EDTA, 8 h): 92.3 ± 2.1
- Stability values ([4]; EDTA, 24 h): 91.9 ± 1.8
- specific internalization or cell surface binding [5]: no surface activity or internalization

SMILES: O=C(O)CCCCC1(N(CC(=O)O)CC(=O)O)CN(CC(=O)O)CCN(CC(=O)O)C1.[177Lu+3] [^177Lu AAZTA^5]
- Stability values ([2]; 1 h): 99.8 ± 0.1
- Stability values ([2]; 2 h): 99.7 ± 0.1
- Stability values ([2]; 24 h): 99.9 ± 0.1
- Stability values ([2]; 7 d): 82.5 ± 3.2
- specific internalization or cell surface binding (PC3 cells): no surface activity or internalization
- Stability values ([3]; 1 h): 97.8 ± 0.5
- Stability values ([3]; 2 h): 98.6 ± 0.4
- Stability values ([3]; 24 h): 99.1 ± 0.6
- Stability values ([3]; 7 d): 96.0 ± 0.8
- Stability values ([4]; DTPA, 1 h): 99.1 ± 0.2
- Stability values ([4]; DTPA, 2 h): 99.1 ± 0.1
- Stability values ([4]; DTPA, 24 h): 80.4 ± 5.4
- Stability values ([4]; DTPA, 7 d): 59.0 ± 14.3
- Stability values ([4]; EDTA, 1 h): 98.9 ± 0.2
- Stability values ([4]; EDTA, 2 h): 97.9 ± 0.3
- Stability values ([4]; EDTA, 24 h): 79.2 ± 2.9
- Stability values ([4]; EDTA, 7 d): 48.9 ± 1.5
- specific internalization or cell surface binding [5]: no surface activity or internalization

SMILES: O=C(O)CCC(NC(=O)NC(CCCCNC(=O)C(Cc1ccc2ccccc2c1)NC(=O)C1CCC(CNC(=O)CN2CCN(CC(=O)O)CCN(CC(=O)O)CCN(CC(=O)O)CC2)CC1)C(=O)O)C(=O)O.[Ga+3] (stereo not drawn) [[^nat/68Ga]Ga-PSMA-617]
- Ki (PSMA; ref Benešová et al. [2015]): 6.4 ± 1 nM
- %internalization / total cellular activity ratio [1, 6]: around 45%
- Internalization ± SD [1, 6]: 17.7 ± 4.4 %IA/10^6 cells
- %internalization / total cellular activity ratio ([1]; LNCaP cells, ref Benešová et al. [2015], listed as [^68Ga]Ga-DOTA-PSMA-617): 47%
